Values after ≈ are worked out from the molar mass of the structure shown. Read-outs that look alike come from different tables or passages of the source. Each block holds one compound with its values, some of them ahead of it.
Assays:
[1] = test system: nine gram-positive organisms and the yeast/fungus Candida; assay: MIC, broth dilution, over all organisms (Examples I/II); format: cell-based; details: for MIC: read-out: MIC range; for Inhibition in words: saturated acids, Table 1
Description: (§1) In order to establish comparative bactericidal and fungicidal results with homologous fatty acids, a series of experiments was performed with thirty straight-chain fatty acids and derivatives thereof. Eight different gram-negative and twelve different gram-positive organisms, representing a very broad spectrum of organisms, were used in these experiments including the fungus Candida (a yeast). Additionally, fatty acids were chosen to show the effects of saturation versus unsaturation, in the fatty acid claim. Standard solutions of the fatty acids and their derivatives were prepared by first dissolving the weighed compounds in 1 to 2 ml of 95% ethanol and immediately pouring this solution into 200 ml of Tripticase Soy Broth. These lipid compounds which are insoluble in water and broth precipitated into very small crystals or droplets. The tubes containing the suspension were warmed to approximately 70° C and were then placed in an ultrasonic tank for further solubilization of the lipid derivatives.
(§2) Standard solutions (or suspensions) at 1,000 μg/ml were twofold serially diluted with additional broth to a concentration of 125 μg/ml. A 4-ml amount of each dilution was then quickly, and with constant agitation, dispensed into appropriately labeled screw-capped glass tubes (16 by 125 mm). The tubes were sterilized with steam at 15 psi for 15 minutes. After sterilization, all tubes were cooled and incubated overnight at 35° C to insure sterility.
(§3) All compounds were compared on a molar (micromoles/milliliter) rather than on a mass basis. In the following lists of organisms used, those followed by a parenthetical number are registered with the American Type Culture Collection (ATCC); the remainder were isolates from Providence Hospital or Northland Laboratory.
Staphylococcus aureus, S. epidermidis, beta-hemolytic streptococci (Group A and non-group A), group D streptococcus, Bacillus subtilis (6051), Sarcina lutea (9431), Micrococcus sp., Candida albicans, Nocardia asteroids (3308), Corynebacterium sp. (10700), and pneumococcus (63001).
(§4) One drop (0.04 ± 0.01 ml) of an 18-hr broth culture containing 10^7 and 10^9 organisms/ml was added to each dilution of the test compound, as well as to a tube of plain broth which served as the positive control. After inoculation, the contents of each tube were well mixed, and the tubes were incubated at 35° C in a 5% carbon dioxide + […] atmosphere.
(§5) The MIC is defined as the lowest concentration of compound at which no […] evidence of growth was observed when turbidity of the inoculated broth dilutions was compared with control tubes. […] Only a one-tube difference between the bactericidal and bacteriostatic concentrations was normally observed.
Table 5 presents a comparison of the C10 and C12 free acids and their glyceryl derivatives, and Table 6 gives the corresponding ranges of activity.
(§6) Standard solutions (1000 μg/ml) of three fatty acids and polyglycerol esters thereof were prepared as described in Example I. Also sucrose esters were prepared by transferring the weighed compounds (0.2 gm. dissolved in 1 ml absolute methanol) into 200 ml of sterile Trypticase Soy Broth (TSB). These standard solutions (1000 μg/ml) were twofold serially diluted with additional sterile broth to a concentration of 125 μg/ml. A 3.8 aliquot of each dilution was asceptically delivered into sterile screw-capped culture tubes. All tubes were incubated overnight at 36° C to insure sterility. The microorganisms used in this example were the same as those used in Example I.
The inoculum, 0.05 ml of an 13-24 hour TSB culture (approximately 10^9 organisms/ml) was asceptically delivered into all dilutions of the compounds, mixed well, and incubated at 36° C. […]

[2] = test system: Streptococcus Group A; assay: MIC, broth dilution (Examples I/II); format: cell-based, beta-hemolytic streptococci Group A
Description: as §1, §2, §3, §4, §5, §6
(§7) The inoculum, 0.05 ml of an 13-24 hour TSB culture (approximately 10^9 organisms/ml) was asceptically delivered into all dilutions of the compounds, mixed well, and incubated at 36° C. A tube of inoculated broth without the compound served as a positive control and an uninoculated set of dilutions incubated along with the test dilutions, served as a negative control.
(§8) In those cases in which the test compound itself caused turbidity, an aliquot (0.015 ml) of the mixed broth was inoculated onto an agar plate and incubated at 36° C for examination, as described in Example I. The control procedure of Example I was also repeated. The lauric, capric, and oleic acids were used as internal controls and for comparison to Example I. The minimal inhibitory concentrations (μmole/ml) for the compounds studied are given in Tables 7 and 8.

[3] = test system: Nocardia asteroides; assay: MIC, broth dilution (Examples I/II); format: cell-based, Nocardia asteroids (3308); details: Nocardia asteroides, read-out: Inhibitory concentration
Description: as §1, §2, §3, §4, §5, §6, §7, §8

[4] = test system: Staphylococcus aureus; assay: MIC on mass basis (Example V procedure); format: cell-based
Description: (§9) The essential procedure of Example I was followed with a series of phenolic compounds, with the exception that the test method was conducted on a mass (μg/ml) basis rather than a molecular (mol/ml) basis of the foregoing tests, since the long established phenol-coeffecient test is on a mass rather than molecular basis. Additionally, a different but closely related group of organisms were used in this test, in order to give a complete representative span on gram-negative, gram-positive and fungus organisms. Additionally, the phenolic derivatives chosen for test purposes include a number of derivatives which are presently accepted by the FDA as food-grade phenolic microbicides.
(§10) The same procedure of Example V was repeated but with combinations of mono-laurin (GML).
(§11) The procedure of Example V was repeated with combinations of glycerol mono-laurin (GML) and ethylenediamine tetraacetic acid (EDTA) as the calcium salt and in combination with BHA.

[5] = test system: Nocardia asteroides; assay: MIC on mass basis (Example V procedure); format: cell-based
Description: as §9, §10, §11

[6] = test system: Escherichia coli; assay: MIC on mass basis (Example V procedure); format: cell-based; details: Escherichia coli
Description: as §9, §10, §11

[7] = test system: Candida albicans; assay: MIC on mass basis (Example V procedure); format: cell-based
Description: as §9, §10, §11

[8] = test system: Saccharomyces cerevisiae; assay: MIC on mass basis (Example V procedure); format: cell-based; details: Saccharomyces cerevisiae
Description: as §9, §10, §11

[9] = test system: Pseudomonas aeruginosa; assay: MIC on mass basis (Example V procedure); format: cell-based
Description: as §9, §10, §11

[10] = test system: Streptococcus pyogenes; assay: MIC on mass basis (Example V procedure); format: cell-based
Description: as §9

[11] = test system: Corynebacterium sp.; assay: MIC on mass basis (Example V procedure); format: cell-based
Description: as §9

[12] = test system: Streptococcus faecalis (Group D); assay: MIC on mass basis (Example V procedure); format: cell-based; details: Enterococcus faecalis
Description: as §9

[13] = Table 4, range over the organisms of Table 3
[14] = Staphylococcus aureus, Table 12, Staphylococcus aureus, read-out: MIC
[15] = Table 12, Nocardia asteroides, read-out: MIC
[16] = Table 12, Eschericia coli, read-out: MIC
[17] = Candida albicans, Table 12, Candida albicans, read-out: MIC
[18] = Table 12, Saccharomyces cerevisiae, read-out: MIC
[19] = Pseudomonas aeruginosa, Table 12, Pseudomonas aeruginosa, read-out: MIC
[20] = Table 12, Streptococcus pyogenes, read-out: MIC
[21] = Table 12, Corynebacterium sp., read-out: MIC
[22] = Table 12, Streptococcus faecalis (Group D), read-out: MIC
[23] = Table 6, range over the organisms of Table 5, NI = no inhibition

MIC [1, 13]: 54 to 109 µM (≈ 12.3 to 24.8 µg/mL)
Compound: CCCCCCCCCCCC(=O)N(C)C [Lauryl N,N-dimethylamide]

Compound: CCCCCCCCCCC(O)C(=O)O (stereo not drawn) [α-hydroxylaurate]
MIC ([2]; read-out: Inhibitory concentration, Group A Strep): 230 µM (≈ 49.8 µg/mL)
MIC [3]: 4630 µM (≈ 1000 µg/mL)

Compound: CCCCCCCCCCCCCCCCCC(=O)O [Stearic, stearic acid]
Inhibition in words [1]: not inhibitory at all

MIC [4, 14]: 5000 µg/mL
MIC [5, 15]: 500 µg/mL
MIC [6, 16]: > 5000 µg/mL
MIC [7, 17]: > 5000 µg/mL
MIC [8, 18]: > 5000 µg/mL
MIC [9, 19]: > 5000 µg/mL
MIC [10, 20]: 1000 µg/mL (≈ 4.27 mM)
MIC [11, 21]: 1000 µg/mL (≈ 4.27 mM)
MIC [12, 22]: 2500 µg/mL (≈ 10.7 mM)
Compound: CCc1cc(C(C)(C)C)c(O)c(C(C)(C)C)c1 [C2, 2,6-di-tert-butyl-4-ethylphenol]

Compound: CCCCCC(=O)O [Caproic, caproic acid]
Inhibition in words [1]: not inhibitory at all

Compound: CCCCCCCCCCCC(=O)O [Lauric acid, lauric acid]
MIC ([2]; group A Streptococci, Bio Gel and Florisil used): > 990 µM
MIC ([2]; group A Streptococci, filtered (laurate crystals removed)): 1000 µM (≈ 200 µg/mL)
MIC ([2]; group A Streptococci, non-filtered broth): 125 µM (≈ 25 µg/mL)
Effect of albumin on MIC ([1]; Albumin (0.1%) added): had no effect on the determination of the MIC
MIC range [1, 13]: 0.062 to 2.49 µmol/mL
MIC range [1, 23]: 0.062 - 2.49 μ/Mol/ml
MIC [1]: 62 to 2490 µM (≈ 12.4 to 499 µg/mL)
Inhibition in words [1]: clearly the more active saturated acid

MIC [1, 23]: 100 to 2000 µM (≈ 24.6 to 493 µg/mL)
Compound: CCCCCCCCCC(=O)OCC(O)CO (stereo not shown) [1-mono-caprin]

Compound: CCCCCCCC/C=C\CCCCCCCC(=O)O [Oleic acid]
Activity in words ([1]; at the concentration tested): very limited activity

MIC [4, 14]: > 5000 µg/mL
MIC [5, 15]: 5000 µg/mL
MIC [6, 16]: > 5000 µg/mL
MIC [7, 17]: > 5000 µg/mL
MIC [8, 18]: > 5000 µg/mL
MIC [9, 19]: > 5000 µg/mL
MIC [10, 20]: > 5000 µg/mL
MIC [11, 21]: 5000 µg/mL (≈ 17.2 mM)
MIC [12, 22]: > 5000 µg/mL
Compound: CCCCCCc1cc(C(C)(C)C)c(O)c(C(C)(C)C)c1 [C6, 2,6-di-tert-4-hexylphenol]

Compound: O=C(O)CN(CCN(CC(=O)O)CC(=O)O)CC(=O)O [EDTA, ethylenediamine tetraacetic acid]
MIC ([4]; Staphylococcus aureus, read-out: MIC of EDTA alone): 5000 µg/mL
MIC ([4]; Table 16, Staphylococcus aureus, no unit in table): > 1,000
MIC ([5]; Nocardia asteroides, read-out: MIC of EDTA alone): 500 µg/mL
MIC ([5]; Table 16, Nocardia asteroides, no unit in table): 1,000
MIC ([6]; Table 16, Escherichia coli, no unit in table (Example 5 procedure, mass basis)): > 1000 µg/mL
MIC ([6]; read-out: MIC of EDTA alone, Table 17, 0 amount of GML): > 10000 µg/mL
MIC ([7]; Candida albicans, read-out: MIC of EDTA alone): 5000 µg/mL
MIC ([7]; Table 16, Candida albicans, no unit in table): > 1,000
MIC ([8]; Table 16, Saccharomyces cerevisiae, no unit in table, read-out: MIC): 1000 µg/mL
MIC ([8]; Table 17, 0 amount of GML, read-out: MIC of EDTA alone): 1000 µg/mL
MIC ([9]; Pseudomonas aeruginosa, read-out: MIC of EDTA alone): 5000 µg/mL
MIC ([9]; Table 16, Pseudomonas aeruginosa, no unit in table): > 1,000
MIC ([10]; Streptococcus pyogenes): 1000 µg/mL (≈ 3.42 mM)
MIC ([10]; Streptococcus pyogenes, read-out: MIC of EDTA alone): 1000 µg/mL
MIC ([11]; Corynebacterium): 1000 µg/mL (≈ 3.42 mM)
MIC ([11]; Corynebacterium, read-out: MIC of EDTA alone): 1000 µg/mL
MIC [12]: > 1000 µg/mL
MIC ([12]; read-out: MIC of EDTA alone): 5000 µg/mL

MIC [1, 13]: 67 to 5400 µM (≈ 12.5 to 1010 µg/mL)
Compound: CCCCCCCCCCCCO [Lauryl alcohol]

— patent US4067997A, “Synergistic microbecidal composition and method” (priority 1976, dated 1978)
